According to patent publication US8455658B2, “Thiazole and thiadiazole compounds for inflammation and immune-related uses” (Synta Pharmaceuticals Corp., priority 2006, dated 2013):

The compounds below were run on IL-2 production (assay: Inhibition of IL-2 production in PHA-activated Jurkat cells (ELISA)). Conditions: Homo sapiens, Jurkat, 20 h, PHA 2.5 μg/mL, IL-2 ELISA.
Format: cell-based
Method: Jurkat cells were placed in a 96 well plate (0.5 million cells per well in 1% FBS medium) then a test compound of this invention was added at different concentrations. After 10 minutes, the cells were activated with PHA (final concentration 2.5 μg/mL) and incubated for 20 hours at 37° C. under CO2. The final volume was 200 μL. Following incubation, the cells were centrifuged and the supernatants collected and stored at −70° C. prior to assaying for IL-2 production. A commercial ELISA kit (IL-2 Eli-pair, Diaclone Research, Besancon, France) was used to detect production of IL-2, from which dose response curves were obtained.

IC50	Structure (SMILES)
< 30 nM	O=C(Nc1c(F)cccc1F)c1ncc(-c2cc(C(F)(F)F)ccc2Cl)s1 [Compound 129, 5-(2-chloro-5-(trifluoromethyl)phenyl)-N-(2,6-difluorophenyl)thiazole-2-carboxamide]
100 to 200 nM	O=C(Nc1c(F)cccc1F)c1ncc(-c2cccc(C(F)(F)F)c2)s1 [Compound 130, N-(2,6-difluorophenyl)-5-(3-(trifluoromethyl)phenyl)thiazole-2-carboxamide]
50 to 100 nM	O=C(Nc1c(F)cccc1F)c1ncc(-c2cccc(-c3ncco3)c2)s1 [Compound 131, N-(2,6-difluorophenyl)-5-(3-(oxazol-2-yl)phenyl)thiazole-2-carboxamide]
> 1000 nM	Cc1cnccc1NC(=O)c1ncc(-c2cc(-c3ncco3)ccc2C)s1 [Compound 132, 5-(2-methyl-5-(oxazol-2-yl)phenyl)-N-(3-methylpyridin-4-yl)thiazole-2-carboxamide]
> 1000 nM	Cc1cnccc1NC(=O)c1ncc(-c2cc(-c3nccs3)ccc2C)s1 [Compound 133, 5-(2-methyl-5-(thiazol-2-yl)phenyl)-N-(3-methylpyridin-4-yl)thiazole-2-carboxamide]
